Experimental data from article PMC9995496, “A screen for MeCP2-TBL1 interaction inhibitors using a luminescence-based assay” (Scientific Reports, 2023).
Structures can show the parent of a compound that is named as a salt.

Tested on: PRKACA-PRKAR2A interaction (SmBiT-PRKACA / LgBiT-PRKAR2A), protein kinase A
Parameters: NanoLuc complementation counter-screen in cell extract, PRKACA with PRKAR2A, loss of luminescence, detects NanoLuc interference
Settings: 0.5 h, 20 µM; inhibitor

| SMILES | Inh (PKA) |
| --- | --- |
| CC(C(=O)O)C(=O)O [UM0142795:01, Methylmalonate] | -2.942 |

Same assay, conditions: counter-screen for NanoLuc interference, 0.5 h, 20 µM, inhibitor, Inh (PKA)

| SMILES | Inh (PKA) [%] |
| --- | --- |
| N[C@@H](CC(=O)N1CCn2c(nnc2C(F)(F)F)C1)Cc1cc(F)c(F)cc1F [UM0141674:01, Sitagliptin phosphate monohydrate] | 0.152 |
| C#Cc1cccc(Nc2ncnc3cc(OCCOC)c(OCCOC)cc23)c1 [UM0130975:02, Erlotinib Hydrochloride] | 10.54 |
| COc1ccc2c3c1O[C@H]1C[C@@H](O)C=C[C@@]31CCN(C)C2 [UM0141554:01, Galanthamine] | 0.2093 |

Same assay, conditions: counter-screen for NanoLuc interference; 0.5 h, 20 µM; inhibitor

| SMILES | Inh (PKA) [%] |
| --- | --- |
| Cc1ccc(-n2nc(C(C)(C)C)cc2NC(=O)Nc2ccc(OCCN3CCOCC3)c3ccccc23)cc1 [UM0127947:02, BIRB 796 (Doramapimod)] | 10.73 |
| O=C1CCC(N2C(=O)c3ccccc3C2=O)C(=O)N1 (stereo not drawn) [UM0141766:01, Thalidomide] | -0.2984 |
| O=C(COc1ccc(Cl)cc1)N[C@H]1CC[C@H](NC(=O)COc2ccc(Cl)cc2)CC1 [UM0142547:01, ISRIB (trans-isomer)] | 0.7821 |
| C=CC(=O)Nc1cccc(C)c1Nc1ncc2cc(-c3c(Cl)c(OC)cc(OC)c3Cl)ccc2n1 [UM0142122:01, BLU9931] | 48.23 |
| Cc1cc(OCc2nnc(SC3CCCC3)n2-c2cccnc2)ccc1-c1ccc(S(C)(=O)=O)cc1 [UM0142426:01, NMS-873] | 10.54 |
| CCCCNc1cc(C(=O)O)cc(S(N)(=O)=O)c1Oc1ccccc1 [UM0118581:03, Bumetanide] | 2.877 |
| O[C@@H](CNC[C@H](O)[C@H]1CCc2cc(F)ccc2O1)[C@@H]1CCc2cc(F)ccc2O1 (racemic) [UM0142211:01, Nebivolol] | 3.79 |
| Oc1nc(-c2ccc(C(F)(F)F)cc2)nc2c1CSCC2 [UM0141417:01, XAV-939] | 15.47 |
| Cc1c(CN2CCN(C(=O)[C@H](C)O)CC2)sc2c(N3CCOCC3)nc(-c3cnc(N)nc3)nc12 [UM0142435:01, GDC-0980 (RG7422)] | 0.4199 |
| Cc1nc(C(=O)NCC(=O)O)c(O)c2ccc(Oc3ccccc3)cc12 [UM0141752:01, FG-4592 (ASP1517)] | 9.511 |
| COc1ccc(-n2c(SCCCN3C(=O)c4cccc5cccc(c45)C3=O)nnc2-c2ccncc2)cc1 [UM0141857:01, WIKI4] | 17.99 |
| Nc1ccc(C(=O)O)cc1 [UM0142813:01, 4-Aminobenzoic acid] | -1.147 |
| CC(N)=NCc1cccc(CN)c1 [UM0142778:01, 1400W dihydrochloride] | -1.118 |
| Cc1cc(SCc2sc(-c3ccc(C(F)(F)F)c(F)c3)nc2C)ccc1OCC(=O)O [UM0141775:01, GW0742] | 20.87 |
| N[C@@H]1C[C@H]1c1ccccc1 [UM0142789:01, Tranylcypromine hydrochloride] | -0.9566 |
| CCOC(=O)COc1ccc(/C=C2\SC(=S)NC2=O)cc1OC [UM0142743:01, IMR-1] | 35.49 |
| COc1cc2c(NC3CCN(C)CC3)nc(N3CCCN(C)CC3)nc2cc1OCCCN(C)C [UM0141847:01, UNC 0224] | 3.563 |
| CC(=O)Nc1ccc(C(=O)Nc2ccccc2N)cc1 [UM0128575:02, CI994 (Tacedinaline)] | -1.752 |
| C[C@@H]1COCCN1c1cc(=O)n2c(n1)N(Cc1cncc(Cl)c1)[C@H](C(F)(F)F)CC2 [UM0142144:01, SAR405] | 7.192 |
| Nc1ncnc2c1ncn2[C@@H]1O[C@H](CO)C[C@H]1O [UM0142866:01, Cordycepin] | -8.119 |
| Cc1ccc(Cl)c(Nc2ccccc2C(=O)O)c1Cl [UM0133818:02, Meclofenamate Sodium] | 21.07 |
| CCCC[N+]1(C)[C@@H]2C[C@@H](OC(=O)[C@H](CO)c3ccccc3)C[C@H]1[C@@H]1O[C@@H]12 (stereo partly drawn) [UM0142864:01, Scopolamine butylbromide] | 0.502 |

| SMILES | Inh (PKA) [%] |
| --- | --- |
| C[C@@](Cc1ccc(O)c(O)c1)(NN)C(=O)O [UM0119735:03, Carbidopa] | 2.512 |
| Cc1ccc(F)c(NC(=O)Nc2ccc(-c3cccc4[nH]nc(N)c34)cc2)c1 [UM0141489:01, Linifanib (ABT-869)] | 45.3 |
| CC1=C(/C=C/C(C)=C/C=C/C(C)=C\C(=O)O)C(C)(C)CCC1 [UM0133752:04, Isotretinoin] | 16.35 |
| Cc1c(NC(=O)OC[C@@H]2COCCN2)cn2ncnc(Nc3ccc4c(cnn4Cc4cccc(F)c4)c3)c12 [UM0141485:01, AC480 (BMS-599626)] | 24.24 |
| CS(=O)(=O)c1ccc([C@@H](O)[C@@H](CF)NC(=O)C(Cl)Cl)cc1 [UM0118980:03, Florfenicol] | -0.2471 |
| NC(=O)c1cccc2cn(-c3ccc([C@@H]4CCCNC4)cc3)nc12 [UM0141586:01, MK-4827] | 5.692 |
| Nc1ccccc1NC(=O)c1ccc(CNc2nccc(-c3cccnc3)n2)cc1 [UM0141696:01, Mocetinostat (MGCD0103, MG0103)] | 5.263 |
| Nc1ncn([C@@H]2O[C@H](CO)[C@@H](O)[C@H]2O)c(=O)n1 [UM0133525:02, 5-Azacytidine] | 1.069 |
| CC(C)OC(=O)[C@H](C)N[P@](=O)(OC[C@H]1O[C@@H](n2ccc(=O)[nH]c2=O)[C@](C)(F)[C@@H]1O)Oc1ccccc1 [UM0141610:01, PSI-7977] | 2.04 |
| O=S(=O)(c1cccc2c(I)cccc12)N1CCCNCC1 [UM0119920:03, ML-7 hydrochloride] | 17.89 |
| COc1ccc(C2=N[C@@H](c3ccc(Cl)cc3)[C@@H](c3ccc(Cl)cc3)N2C(=O)N2CCNC(=O)C2)c(OC(C)C)c1 [UM0141768:01, Nutlin-3] | 1.968 |
| CC(C)NC[C@@H](C(=O)N1CCN(c2ncnc3c2[C@H](C)C[C@H]3O)CC1)c1ccc(Cl)cc1 [UM0141496:01, GDC-0068 (RG7440)] | 42.22 |
| CCOc1cc(C(=O)N2CCC(N3CCN(C)CC3)CC2)ccc1Nc1ncc2c(n1)N(C1CCCC1)c1ccccc1C(=O)N2C [UM0141651:01, XMD17-109] | 18.58 |
| O=C(NC[C@@H]1CN(c2ccc(N3CCOCC3=O)cc2)C(=O)O1)c1ccc(Cl)s1 [UM0141508:01, 5-R-Rivaroxaban] | 3.342 |
| C=CCn1c(=O)c2cnc(Nc3ccc(N4CCN(C)CC4)cc3)nc2n1-c1cccc(C(C)(C)O)n1 [UM0135452:02, MK-1775] | 7.841 |
| CN(C)c1ccc(-c2nc3ncc(Cl)c(N4CCN(CC(=O)Nc5nccs5)CC4)c3[nH]2)cc1 [UM0141726:01, CCT129202] | 76.32 |
| Cn1cc(-c2ccc3nnc(C(F)(F)c4ccc5ncccc5c4)n3n2)cn1 [UM0141869:01, JNJ-38877605] | 8.714 |
| CCn1c2ccccc2c2cc(Nc3ccnc(NCCCN4CCOCC4)n3)ccc21 [UM0142449:01, EHop-016] | 37.03 |
| CC1=C2C[C@H]3[C@@H](CC=C4C[C@@H](O)CC[C@@]43C)[C@@H]2CC[C@]12O[C@@H]1C[C@H](C)CN[C@H]1[C@H]2C [UM0133766:02, Cyclopamine] | 2.445 |
| COC1CCN(C(=O)c2cc(Cc3n[nH]c(=O)c4ccccc34)ccc2F)CC1 [UM0141741:01, AZD2461] | 1.514 |
| Nc1c(CC(=O)O)cccc1C(=O)c1ccc(Br)cc1 [UM0142342:01, Bromfenac Sodium] | 5.05 |
| COc1ccc(/C=C/C(=O)Nc2ccccc2C(=O)O)cc1OC [UM0134356:02, Tranilast] | 18.34 |
